In patent US8293266B2, “Paromomycin-supplemented feed stuff for turkey and use thereof for prophylaxis of histomoniasis, reduction of the horizontal spreading of histomoniasis, and for improved weight gain and feed conversion” (Huvepharma AD, priority 2007, dated 2012):
“Also recorded” adds a separate entry of the source.

Tests used:
[1] = system: histomoniasis; details: use through the whole growth cycle; cited from earlier work
[2] = system: histomoniasis; details: cited from earlier work
[3] = system: Histomonas meleagridis strain HNA.CO.A.L1; assay: Example 1: turkeys inoculated intracloacally with Histomonas meleagridis, mortality and lesions; type: in vivo, turkey; details: low dose (500 ppm), mortality
[4] = system: Histomonas meleagridis strain HNA.CO. A.L1; assay: Example 2: intracloacal Histomonas meleagridis challenge, seeder and contact birds, mortality and lesions; type: in vivo, turkey; details: lowest dose (250 ppm paromomycin sulphate), seeder birds mortality
[5] = system: histomoniasis; details: 200 and 400 ppm in broilers; cited from earlier work

Structure (SMILES): N#CC(c1ccc(Cl)cc1)c1c(Cl)cc(-n2ncc(=O)[nH]c2=O)cc1Cl (stereo not drawn) [diclasuril]
- effect with respect to histomoniasis [1]: no effect

Structure (SMILES): NC[C@@H]1O[C@H](O[C@H]2[C@@H](O)[C@H](O[C@@H]3[C@@H](O)[C@H](N)C[C@H](N)[C@H]3O[C@H]3O[C@H](CO)[C@@H](O)[C@H](O)[C@H]3N)O[C@@H]2CO)[C@H](N)[C@@H](O)[C@@H]1O [paromomycin]
- side effects due to the use of paromomycin ([2]; 1000-2000 ppm in feed (dosage exceeding 1000 ppm)): certain toxicity effects; also recorded: lesions and hypertrophy of the liver
- mortality of infected birds ([2]; fed continuously at 1000-2000 ppm in feed): reduced the mortality of infected birds
- protection compared to the infected untreated group [3]: significant protection
- protection to infection [4]: significant protection
- effect on mortality and lesion scoring [5]: no effect on both mortality and lesion scoring
- use in-vivo as chemotherapeutic agent in broiler chickens [5]: ineffective

Structure (SMILES): CC[C@@]1([C@@H]2O[C@@H]([C@H]3O[C@@](O)(CO)[C@H](C)C[C@@H]3C)C[C@@H]2C)CC[C@H]([C@]2(C)CC[C@]3(C[C@H](O)[C@@H](C)[C@@H]([C@@H](C)[C@@H](OC)[C@H](C)C(=O)O)O3)O2)O1 [monensin]
- effect with respect to histomoniasis [1]: no effect

Structure (SMILES): CC[C@@H](C(=O)[C@@H](C)[C@@H](O)[C@H](C)[C@@H]1O[C@@H]([C@@H](CC)C(=O)O)CC[C@@H]1C)[C@H]1O[C@]2(C=C[C@@H](O)[C@]3(CC[C@@](C)([C@H]4CC[C@](O)(CC)[C@H](C)O4)O3)O2)[C@H](C)C[C@@H]1C [salinomycin]
- effect with respect to histomoniasis [1]: no effect
